The results in this text go back to US11697640B2, “Compounds for treating proliferative diseases” (Children's Medical Center Corporation, priority 2015, dated 2023).

Data set [1] in a line: Viability assay: effect of selected compounds on viability. In kind it is cell-based. To be noted: for viability at 1 µM: 1.0 μM compound; for viability at 10 µM: 10 μM compound.
The test system of data set [2] is high metastatic (DU145LN4) prostate cancer cells. Description: Apoptosis by PARP-1 and Caspase-3 blot after 48 h treatment. The format is cell-based. To be noted: 48 hours after treatment. Here is the method: (§1) Cells were seeded in 6-well dishes at 50% confluence. Cells were treated with the compound OBD9 after 24 hours. 48 hours later, cells were lysed with lysis buffer and protein was collected and quantified with the BCA assay (Invitrogen). 20 micrograms of protein were loaded on 10% polyacrylamide gels. The gels were blotted onto nitrocellulose and stained with rabbit antibody to PARP-1 and Caspase-3 (both from Cell Signaling) and then visualized with goat, anti-rabbit HRP-conjugated antibody and HRP conjugated GAPDH.

Data set [3] relates to parental (DU145) prostate cancer cells. The data set is described as above. The note with it: 48 hours after treatment. In kind it is cell-based. The method, then:
as §1

The subject of another data set is tubulin. The data set can be described thus: Tubulin polymerization assay (Cytoskeleton Inc. kit, fluorescent reporter). The format is biochemical. To be noted: fluorescence-based polymerization kinetics. The method, then:
Tubulin polymerization was measured using the tubulin polymerization assay kit from Cytoskeleton Inc., which measures tubulin polymerization kinetic via fluorescent enhancement to the incorporation of a fluorescent reporter into microtubules as polymerization takes place.

For data set [4], the system named is PC3M-prostate cancer cells. Description: Imaging of microtubule stability by tubulin staining and confocal microscopy. In kind it is cell-based, human. To be noted: PC3M cells, 24, 48 and 72 hours. Here is the method:
Cells were seeded on glass coverslips. 24 hours later, cells were treated with compound OBD9. After the indicated times (24 hours, 48 hours, and 72 hours), cells were fixed with paraformaldehyde (4% in PBS), permeabilized Triton-X100 (0.02% in Phosphate buffered saline), then stained with mouse antibody to human tubulin (1:200 dilution) and then with 1:400 goat anti-mouse IgC (Invitrogen) and viewed via confocal microscopy at (63× objective).

In data set [1], `COC(=O)Nc1nc2cc(C(=O)c3ccc(N(C)C4COC4)cc3)ccc2[nH]1` [Compound 9] gave a viability at 1 µM of 34.9% and a viability at 10 µM of 34.3%. Further, the “apoptosis induction (PARP-1, Caspase-3)” value in data set [2] is listed as “induces apoptosis”. In data set [3], the “apoptosis induction (PARP-1, Caspase-3)” value is “induces apoptosis”. In addition, the “effect on tubulin polymerization” value in the data set on tubulin is given as “disrupts (inhibits) tubulin polymerization”. Also, the “effect on microtubule (tubulin) stability” value in data set [4] is recorded as “interferes with microtubule (tubulin) stability”.
In the case of `COC(=O)Nc1nc2cc(Oc3cccc(N4CCN(C)CC4)n3)ccc2[nH]1` [Compound 12], in data set [1], the viability at 1 µM came out at 94.5% and the viability at 10 µM stood at 35.2%.
In data set [1], `COC(=O)Nc1nc2cc(Oc3cccc(N4CCN(C)CC4)c3)ccc2[nH]1` [Compound 13] came in with a viability at 1 µM of 80.9% and a viability at 10 µM of 49.1%.
As to `CCCSc1ccc2[nH]c(NC(=O)OCCN(C)C)nc2c1` [Compound 15], in data set [1], the viability at 1 µM worked out at 97.4% and the viability at 10 µM stood at 35.3%.
On the same counts, the results for `CCCSc1ccc2[nH]c(NC(=O)OCCCN(C)C)nc2c1` [Compound 16] are 90.1% and 90.3%.
In data set [1], `CN(C)CCCOC(=O)Nc1nc2cc(C(=O)c3ccc(F)cc3)ccc2[nH]1` [Compound 17] showed a viability at 1 µM of 93.9% and a viability at 10 µM of 84.8%.

As usually defined, the viability is a read-out of living cells in per cent, often relative to untreated cells. Read a high viability as better survival.
